Measurements as given in article PMC4519859, “Synthesis and Biological Evaluation of Novel Dehydroabietic Acid Derivatives Conjugated with Acyl-Thiourea Peptide Moiety as Antitumor Agents” (International Journal of Molecular Sciences, 2015).

Assays:
[1] = system: MGC-803; test: MTT cytotoxicity assay, MGC-803; type: cell-based; settings: Homo sapiens, 48 h, mean ± SD, three independent experiments
[2] = system: HeLa cells; test: Intracellular Ca2+ release (Fluo-3/AM); type: cell-based, human; settings: 10 μM, 24 h
Text: (§1) Mitochondria have also been implicated as a source of ROS during apoptosis. […] We herein studied whether the loss of mitochondrial transmembrane potential resulting in the generation of ROS measured as described in our previous papers , using the fluorescent probe 2,7-dichlorofluorescein diacetate (DCF-DA) determined by fluorescence microscopy. […] Calcium has long been recognized as a significant participant in cell apoptosis. Therefore, we investigated whether compound 9n inducing cell death was involved in the production of Ca^2+. To investigate the effect of compound 9n on calcium release, HeLa cells treated with compound 9n at 10 μM for 24 h were loaded with the Ca^2+ indicator Fluo-3-acetoxymethyl-ester (Fluo-3/AM, 5 µM; Beyotime, Jiangsu, China).

[3] = system: HL-7702; test: MTT cytotoxicity assay, HL-7702 normal cells; type: cell-based; settings: L02, 48 h, normal human cells, mean ± SD, three independent experiments
[4] = system: HeLa cells; test: JC-1 mitochondrial membrane potential staining; type: cell-based, human; settings: 10 μM, 12 and 24 h
Text: Apoptosis plays an important role in cancer, since its induction in tumor cells is essential for successful treatment. Mitochondria play key roles in apoptosis through the release of pro-apoptotic factors such as cytochrome c and apoptosis-inducing factor [19, 20]. In order to further investigate the apoptosis-inducing effect of target compound 9n, mitochondrial membrane potential changes were designed and detected, using the fluorescent probe JC-1. […] In the control cells, JC-1 could aggregate in mitochondria and present high red fluorescence. However, in cells undergoing apoptosis, where the mitochondrial potential has collapsed, JC-1 exists in the cytosol as a monomer that emits green fluorescence. HeLa cells treated with compound 9n at 10 μM from 12 to 24 h were stained with JC-1 and cells not treated with the compound 9n were used as control for 24 h. […]
General procedure for mitochondrial membrane potential staining: JC-1 probe was employed to measure mitochondrial depolarization in […]. […] Mitochondrial membrane potentials were monitored by determining the relative amounts of dual emissions from mitochondrial JC-1 monomers or aggregates using an Nikon ECLIPSETE2000-S fluorescent microscope. Mitochondrial depolarization is indicated by an increase in the green/red fluorescence intensity ratio.

[5] = system: HeLa cells; test: Annexin V/PI apoptosis flow cytometry; type: cell-based, human; settings: 12 h, control 1.521%
Description: Annexin V/PI staining was performed to distinguish apoptotic and necrotic cell deaths. The apoptosis ratios induced by compound 9n in HeLa cells were quantitatively determined by flow cytometry (Figure 5). […] Apoptosis ratios (including the early and late apoptosis ratios) for compound 9n were obtained after 12 h of treatment at the concentration of 10 and 15 μM. The apoptosis of HeLa cells treated with target compound 9n increased gradually in a concentration manner. […] The results illustrated that target compound 9n suppressed cell proliferation by inducing apoptosis.
General procedure apoptosis ratios: Prepared HeLa cells (1 × 10^6 cells/mL) were washed twice with cold PBS and then re-suspended gently in 500 μL of binding buffer. Thereafter, cells were stained in 5 μL of Annexin V-FITC and shaken well. Finally, the cells were mixed with 5 μL of PI, incubated for 20 min in the dark and subsequently analyzed using FACSCalibur (Becton Dickinson, Franklin Lakes, NJ, USA).

[6] = system: HeLa cells; test: ROS generation assay (DCF-DA); type: cell-based, human; settings: 10, 15 μM, 12 h
Text: as §1

Compound: CC(C)c1ccc2c(c1)CCC1[C@](C)(C(=O)NC(=S)N[C@H](Cc3ccccc3)C(=O)Nc3ccccn3)CCC[C@]21C (stereo partly drawn) [Compound 9n, (1R,4aS)-7-Isopropyl-1,4a-dimethyl-N-(((R)-1-oxo-3-phenyl-1-(pyridin-2-ylamino)propan-2-yl)carbamothioyl)-1,2,3,4,4a,9,10,10a-octahydrophenanthrene-1-carboxamide]
- IC50 [1]: 16.9 ± 1.56 µM
- intracellular Ca2+ release [2]: stronger green fluorescence
- IC50 [3]: 39.6 ± 1.47 µM
- mitochondrial membrane potential change (JC-1) [4]: strong green fluorescence
- apoptosis ratio (early and late) ([5]; 10 μM): 21.11%
- apoptosis ratio (early and late) ([5]; 15 μM): 42.75%
- ROS level [6]: induced an increase of the ROS level
